One experiment deals with 2008 cells. Kind of experiment: Growth inhibition of ovarian carcinoma cells (MTS). Format: cell-based, human.
In a further experiment the test system is MDA-MB231 cells. Kind of experiment: Growth inhibition of breast carcinoma cells (MTS). Format: cell-based, human.
The next experiment concerns PC-3 cells. Kind of experiment: Growth inhibition of prostate carcinoma cells (MTS). Format: cell-based, human.
The test system of experiment [1] is isolated bovine brain tubulin. Kind of experiment: Inhibition of GTP/glutamate-induced tubulin polymerization (turbidimetric, 30° C.). Format: biochemical. The note with it: for % TPI 5 μM: 5 μM compound.
The subject of experiment [2] is tubulin (colchicine site). Kind of experiment: Inhibition of [3H]colchicine binding to tubulin. Further details: species or system bovine. The settings on record: for % CBI 5 μM, (30° C.) / % CBI 5 μM, 37° C.: 5 μM compound; for % CBI 5 μM, (30° C.) / % CBI 50 μM, (30° C.): 30° C. (values in parentheses); for % CBI 50 μM, (30° C.) / % CBI 50 μM, 37° C.: 50 μM compound. Here is the method: Assays to determine whether 15mix-17mix inhibited binding of [^3H]colchicine to tubulin at both 30° C. and 37° C. were performed. This was accomplished using methods described previously. Kang, G.-J.; Getahun, Z.; Muzaffar, A.; Brossi, A.; Hamel, E. J. Biol. Chem. 1990, 265, 10255; Verdier-Pinard, P.; Lai, J.-Y.; Yoo, H.-D.; Yu, J.; Marquez, B.; Nagle, D. G.; Nambu, M.; White, J. D.; Falck, J. R.; Gerwick, W. H.; Day, B. W.; Hamel, E. Mol. Pharmacol. 1998, 53, 62. Briefly, 5 μM [^3H]colchicine (2.3 TBq/mmol), drug (1, 5, 10, 50, or 250 μM), or vehicle (DMSO, 5% v/v) were incubated at 30° C. for 15 minutes or at 37° C. for 10 minutes with 1 μM tubulin in the presence of 1 M monosodium glutamate, 0.1 M glucose-1-phosphate, 1 mM MgCl2, 1 mM GTP, and 0.5 mg/mL bovine serum albumin. The solutions were filtered through two stacks of DEAE-cellulose filters and the radioactivity in the filtrate was determined by scintillation spectrometry. Each series of determinations included positive controls of 1, 5, and/or 50 μM curacin A.

Setting [3] is: 96 h, read-out: GI50 2008 (ovarian) 96 h.
[4] abbreviates: read-out: GI50 2008 (ovarian) 48 h, 48 h.
Setting [5] is: 96 h, read-out: GI50 MDA-MB231 (breast) 96 h.
The mark [6] stands for this setting: read-out: GI50 MDA-MB231 (breast) 48 h, 48 h.
[7] abbreviates: 96 h, read-out: GI50 PC3 (prostate) 96 h.
Setting [8] is: read-out: GI50 PC3 (prostate) 48 h, 48 h.

The structures appear in SMILES notation. Read-outs that look alike come from different tables or passages of the source.

In the case of `C=CC[C@@H](CC[C@@]1(C)C[C@H]1[C@H]1C[C@@H]1CC/C=C\[C@@H]1CSC([C@@H]2C[C@@H]2C)=N1)OC` [JR DCCA], the GI50 in the experiment on 2008 cells (setting [3]), with 2008 cells (setting [4]), in the experiment with MDA-MB231 cells (setting [5]), in the experiment with MDA-MB231 cells (setting [6]), in the experiment with PC-3 cells (setting [7]) and with PC-3 cells (setting [8]) was > 50 µM in each case. Also, in experiment [1], the “% TPI 5 μM” value is given as 0%. Moreover, the “% CBI 5 μM, (30° C.)” value in experiment [2] is given as “(9 ± 5) %”. In experiment [2] (37° C.), the “% CBI 5 μM, 37° C.” value was −39 ± 7%. For the same compound, the “% CBI 50 μM, (30° C.)” value in experiment [2] is given as “(−12 ± 9) %”. The “% CBI 50 μM, 37° C.” value in experiment [2] (37° C.) was −62 ± 5%.
Take `C=CC[C@@H](CC/C(C)=C/C=C/CC/C=C\[C@@H]1COC(C(C)(C)C)=N1)OC` [JRC1]: the GI50 (commonly the concentration that inhibits growth by half) in the experiment on 2008 cells (setting [3]) was 3.7 ± 1.5 µM; with 2008 cells (setting [4]), 0.45 ± 0.5 µM; with MDA-MB231 cells (setting [5]), 4.1 ± 1.1 µM; with MDA-MB231 cells (setting [6]) it was 1.8 ± 0.3 µM; with PC-3 cells (setting [7]), 8.8 ± 0.8 µM; with PC-3 cells (setting [8]), 6.2 ± 1.3 µM. Besides, the “% TPI 5 μM” value in experiment [1] came to 0%. In addition, the “% CBI 5 μM, (30° C.)” value in experiment [2] is “(14 ± 5) %”. For the same compound, the “% CBI 5 μM, 37° C.” value in experiment [2] (37° C.) was found to be 0 ± 7%. Moreover, in experiment [2], the “% CBI 50 μM, (30° C.)” value is on record as “(80 ± 1) %”. Also, the “% CBI 50 μM, 37° C.” value in experiment [2] (37° C.) came out at 87 ± 1%.
For the compound `C=CC[C@@H](CC/C(C)=C/C=C/CC/C=C\c1coc(C(C)(C)C)n1)OC` [JRC2], the GI50 is > 50 µM in the experiment on 2008 cells (setting [3]); > 50 µM with 2008 cells (setting [4]); > 50 µM with MDA-MB231 cells (setting [5]); 36 ± 22 µM in the experiment with MDA-MB231 cells (setting [6]); > 50 µM in the experiment on PC-3 cells (setting [7]); > 50 µM in the experiment on PC-3 cells (setting [8]). Moreover, the “% TPI 5 μM” value in experiment [1] stood at 51%. The “% CBI 5 μM, (30° C.)” value in experiment [2] is reported as “(7 ± 5) %”. Also, the “% CBI 5 μM, 37° C.” value in experiment [2] (37° C.) is 0 ± 17%. Besides, the “% CBI 50 μM, (30° C.)” value in experiment [2] is on record as “(7 ± 6) %”. For the same compound, the “% CBI 50 μM, 37° C.” value in experiment [2] (37° C.) is recorded as −52 ± 14%.
On to `C=CC[C@@H](CC/C(C)=C/C=C/CC/C=C\[C@@H]1CSC(C(C)(C)C)=N1)OC` [JRC3], for which the GI50 in the experiment with 2008 cells (setting [3]) was 0.18 ± 0.11 µM; in the experiment with 2008 cells (setting [4]) it was 0.22 ± 0.09 µM; in the experiment with MDA-MB231 cells (setting [5]), 0.27 ± 0.16 µM; in the experiment on MDA-MB231 cells (setting [6]), 0.2 ± 0.11 µM; in the experiment on PC-3 cells (setting [7]), 0.061 ± 0.059 µM; in the experiment on PC-3 cells (setting [8]), 0.13 ± 0.08 µM. The “% TPI 5 μM” value in experiment [1] amounted to 100%. In experiment [2], the “% CBI 5 μM, (30° C.)” value is “(35 ± 4) %”. For the same compound, the “% CBI 5 μM, 37° C.” value in experiment [2] (37° C.) is reported as −35 ± 15%. The “% CBI 50 μM, (30° C.)” value in experiment [2] is given as “(63 ± 6) %”. Besides, in experiment [2] (37° C.), the “% CBI 50 μM, 37° C.” value is on record as 13 ± 12%.
As to `C=CC[C@@H](CC/C(C)=C/C=C/CC/C=C\c1csc(C(C)(C)C)n1)OC` [JRC4], the GI50 with 2008 cells (setting [3]) came to 0.25 ± 0.05 µM; in the experiment on 2008 cells (setting [4]), 0.3 ± 0.17 µM; with MDA-MB231 cells (setting [5]), 0.25 ± 0.02 µM; with MDA-MB231 cells (setting [6]), 0.32 ± 0.2 µM; in the experiment with PC-3 cells (setting [7]) it was 0.45 ± 0.09 µM; with PC-3 cells (setting [8]), 0.24 ± 0.07 µM. In experiment [1], the “% TPI 5 μM” value stood at 100%. For the same compound, the “% CBI 5 μM, (30° C.)” value in experiment [2] is “(38 ± 2) %”. Moreover, in experiment [2] (37° C.), the “% CBI 5 μM, 37° C.” value is −21 ± 16%. For the same compound, the “% CBI 50 μM, (30° C.)” value in experiment [2] is “(43 ± 19) %”. The “% CBI 50 μM, 37° C.” value in experiment [2] (37° C.) is given as 5 ± 13%.
As to `C=CCC(CCC(C)=CC=CCCC=CC1COC(C=Cc2ccccc2)=N1)OC` (stereo not drawn) [JRC5], the GI50 in the experiment with 2008 cells (setting [3]) is 23 ± 2 µM; in the experiment on 2008 cells (setting [4]), 17 ± 3 µM; with MDA-MB231 cells (setting [5]) it was 5.8 ± 3.6 µM; with MDA-MB231 cells (setting [6]), 14 ± 3 µM; in the experiment with PC-3 cells (setting [7]), 28 ± 1 µM; with PC-3 cells (setting [8]), 30 ± 6 µM. In experiment [1], the “% TPI 5 μM” value came out at 29%. Besides, in experiment [2], the “% CBI 5 μM, (30° C.)” value was “(9 ± 6) %”. Besides, the “% CBI 5 μM, 37° C.” value in experiment [2] (37° C.) is reported as 1 ± 12%. For the same compound, the “% CBI 50 μM, (30° C.)” value in experiment [2] was “(−220 ± 16) %”. For the same compound, the “% CBI 50 μM, 37° C.” value in experiment [2] (37° C.) is −89 ± 7%.
Consider `C=CC[C@@H](CC[C@@]1(C)C[C@H]1[C@H]1C[C@@H]1CC/C=C\[C@@H]1COC([C@@H]2C[C@@H]2C)=N1)OC` [JRCPOX], for which the GI50 came out at 23 ± 1 µM with 2008 cells (setting [3]); 18 ± 4 µM in the experiment with 2008 cells (setting [4]); 24 µM in the experiment on MDA-MB231 cells (setting [5]); 18 ± 4 µM in the experiment on MDA-MB231 cells (setting [6]); 24 ± 1 µM in the experiment with PC-3 cells (setting [7]); 49 ± 1 µM in the experiment with PC-3 cells (setting [8]). Besides, the “% TPI 5 μM” value in experiment [1] is given as 83%. Also, the “% CBI 5 μM, (30° C.)” value in experiment [2] is “(−142 ± 59) %”. Besides, in experiment [2] (37° C.), the “% CBI 5 μM, 37° C.” value is on record as −8 ± 11%. In addition, in experiment [2], the “% CBI 50 μM, (30° C.)” value is reported as “(−205 ± 17) %”. For the same compound, the “% CBI 50 μM, 37° C.” value in experiment [2] (37° C.) was −74 ± 19%.
Consider `COc1cc(/C=N\OC/C=C/C=C(\C)CCC(O)c2cccs2)cc(OC)c1OC` (stereo not drawn) [JRoxime1], for which the GI50 came out at 0.34 ± 0.29 µM in the experiment with 2008 cells (setting [3]); 0.24 ± 0.18 µM in the experiment on 2008 cells (setting [4]); 0.24 ± 0.18 µM with 2008 cells (read-out: GI50 ovarian (2008), 48 hours of continuous drug exposure, 48 hours continuous exposure); 0.38 ± 0.2 µM in the experiment with MDA-MB231 cells (setting [5]); 0.12 ± 0.1 µM in the experiment on MDA-MB231 cells (setting [6]); 0.12 ± 0.1 µM with MDA-MB231 cells (read-out: GI50 breast (MDA-MB231), 48 hours of continuous drug exposure, 48 hours continuous exposure). Also, the 50% growth inhibitory concentration (GI50) stood at 0.53 ± 0.39 µM in the experiment on PC-3 cells (setting [7]); 0.25 µM with PC-3 cells (setting [8]); 0.25 ± 0.08 µM in the experiment on PC-3 cells (read-out: GI50 prostate (PC3), 48 hours of continuous drug exposure, 48 hours continuous exposure). Also, the “% TPI 5 μM” value in experiment [1] was determined as 100%. The IC50 in experiment [1] (30° C. turbidimetric assay, N=2 over 4 concentrations, read-out: IC50, inhibition of GTP/glutamate-induced assembly of tubulin) is 0.17 ± 0.09 µM. For the same compound, the “% CBI 5 μM, (30° C.)” value in experiment [2] is “(48 ± 12) %”. For the same compound, the “% CBI 5 μM, 37° C.” value in experiment [2] (37° C.) is recorded as 53 ± 2.2%. For the same compound, the “% CBI 50 μM, (30° C.)” value in experiment [2] is listed as “(57 ± 15) %”. Besides, the “% CBI 50 μM, 37° C.” value in experiment [2] (37° C.) was determined as 37 ± 8%. For the same compound, the “displacement of pre-bound [3H]colchicine from tubulin, 30° C.” value in experiment [2] (equimolar (5 μM) concentration, 30° C.) is recorded as 48±12%. Moreover, the “displacement of pre-bound [3H]colchicine from tubulin, 37° C.” value in experiment [2] (equimolar (5 μM) concentration, 37° C.) is given as 53±2%.
With `COc1cc(C=NOCC2CC2CCC(C)c2cccs2)cc(OC)c1OC` (stereo not drawn) [JRoxime3], the GI50 in the experiment on 2008 cells (setting [3]), with 2008 cells (setting [4]), in the experiment on MDA-MB231 cells (setting [5]), in the experiment on MDA-MB231 cells (setting [6]), in the experiment with PC-3 cells (setting [7]) and in the experiment with PC-3 cells (setting [8]) was > 50 µM in each case. Also, the “% TPI 5 μM” value in experiment [1] amounted to 3%. Also, the “% CBI 5 μM, (30° C.)” value in experiment [2] was “(−10 ± 10) %”. Moreover, the “% CBI 5 μM, 37° C.” value in experiment [2] (37° C.) was −30 ± 6%. Moreover, the “% CBI 50 μM, (30° C.)” value in experiment [2] was “(18 ± 6) %”. In addition, the “% CBI 50 μM, 37° C.” value in experiment [2] (37° C.) was −30 ± 7%.

The values above are taken from patent US6392055B1, “Synthesis and biological evaluation of analogs of the antimitotic marine natural product curacin A” (The University of Pittsburgh, priority 2000, dated 2002).
